Legend:
Type in all cases: cell-based, Human
A498 [1] = assay: Propidium iodide (PI) apoptosis assay, LD50 after 72 h
Protocol: (§1) Human kidney carcinoma and melanoma cell lines A498, A704, CAKI1, CAKI2, WM115, WM266-4 and C8161 were provided by M. Herlyn (Wistar Institute, Philadephia) and R. Gillies (Arizona Cancer Center, Phoenix) or purchased from the American Tissue Culture Collection. CAKI1, CAKI2 and C8161 cells were cultured in Dulbecco's modified Eagle's medium (DMEM; Gibco Life Technologies Inc.), supplemented with 10 % fetal calf serum (FCS), 2 mM glutamine, and 1 % nonessential amino acids. A498, A704 and WM115 cells were cultured in Minimum Essential Medium (MEM; Gibco Life Technologies Inc.) supplemented with 10 % FCS, 2 mM glutamine, and 1 % (v/v) nonessential amino acids. WM266-4 cells were cultured in RPMI medium (Gibco Life Technologies Inc.), supplemented with 10 % FCS and 2 mM glutamine.
(§2) The cells were treated with Sunitinb concentrations between 2.5 µM and 20 µM for 72 h and apoptosis was determined according to Nicoletti's procedure (Riccardi and Nicoletti 2006). BD CellQuest Pro software (Becton Dickinson) for subG1 peak detection was used to determine the extent of the apoptotic cell formation. Statistical evaluation of the half maximal lethal dose-(LD50) values was assessed by using SigmaPlot (Systat Software, Inc., version 10).

CAKI1 = assay: as above
Protocol: as §1, §2

C8161^NDes [2] = assay: Apoptosis LD50 in Sorafenib desensitized cell line
Protocol: as §2
(§3) To determine the drug specificity of the selection process, we also established Sorafenib selected polyclonal cell populations using the same conditions.

WM115^NDes [3] = assay: Apoptosis LD50 in Sorafenib desensitized cell line
Protocol: as §2, §3

WM266-4^NDes [4] = assay: Apoptosis LD50 in Sorafenib desensitized cell line
Protocol: as §2, §3

A704 = assay: Propidium iodide (PI) apoptosis assay, LD50 after 72 h; conditions: A704 parental, Sunitinib 2.5-20 µM, apoptosis (subG1)
Protocol: as §1, §2

C8161 [5] = assay: as above; conditions: C8161 parental; Sunitinib 72 h; apoptosis (subG1)
Protocol: as §1, §2

WM115 [6] = assay: as above; conditions: WM115 parental; Sunitinib 72 h; apoptosis (subG1)
Protocol: as §1, §2

WM266-4 [7] = assay: as above; conditions: WM266-4 parental; Sunitinib 72 h; apoptosis (subG1)
Protocol: as §1, §2

A498^SDes [8] = assay: Apoptosis LD50 in Sunitinib desensitized cell line; conditions: A498^SDes compared to parental cell line; 72 h
Protocol: as §2

A704^SDes = assay: Apoptosis LD50 in Sunitinib desensitized cell line; conditions: A704^SDes compared to parental cell line; 72 h
Protocol: as §2

C8161^Sdes [9] = assay: Apoptosis LD50 in Sunitinib desensitized cell line; conditions: C8161^Sdes compared to parental cell line; 72 h
Protocol: as §2

WM115^SDes [10] = assay: Apoptosis LD50 in Sunitinib desensitized cell line; conditions: WM115^SDes compared to parental cell line; 72 h
Protocol: as §2

WM266-4^SDes [11] = assay: Apoptosis LD50 in Sunitinib desensitized cell line; conditions: WM266-4^SDes compared to parental cell line; 72 h
Protocol: as §2

A704^NDes = assay: Apoptosis LD50 in Sorafenib selected cell line
Protocol: as §2, §3

A498^SDes [12] = assay: Increased Sunitinib-induced apoptosis (AdA) after siRNA knock-down, PI assay; conditions: Sunitinib 72 h
Protocol: (§4) The cells were seeded with equal numbers in 6-Well plates and transfected with 40 pmol siRNA (PRKX (AMBION, cat. no.: s224410, s224411, s11195), TTBK2 (AMBION, cat. no.: s44812, s44813, s44814), RSK4/RPS6KA6 (AMBION, cat. no.: s223751, s223752, s223753) and 5 µl lipofectamine RNAiMAX (Invitrogen) following the manufacturers' protocols. To determine the knock-down efficiency, semi-quantitative RT-PCR was performed (Primer list, see table 1). Table 1: Primer used for RT-PCR
(§5) Apoptotic cell formation was monitored according to Nicoletti's procedure.
(§6) To analyze the increased Sunitinib-induced apoptosis (AdA) upon gene-expression reduction compared to the control siRNA, apoptosis was determined using PI-Assays after 72 h. Gene knock-downs ranged between 50% and 90%, as estimated by scanning densitometry (Fig. 4A). […] Like for PRKX and TTBK2, the […] in gene-expression strongly correlated with the degree of desensitization.

A498 [13] = assay: as above; conditions: Sunitinib 72 h
Protocol: as §4, §5, §6

C8161^NDes [14] = assay: as above; conditions: C8161NDes, Sunitinib 72 h
Protocol: as §4, §5, §6

C8161^Sdes [15] = assay: as above; conditions: Sunitinib 72 h
Protocol: as §4, §5, §6

C8161 [16] = assay: as above; conditions: Sunitinib 72 h
Protocol: as §4, §5, §6

WM115^NDes [17] = assay: as above; conditions: Sunitinib 72 h
Protocol: as §4, §5, §6

WM115 [18] = assay: as above; conditions: Sunitinib 72 h
Protocol: as §4, §5, §6

WM266-4^NDes [19] = assay: as above; conditions: Sunitinib 72 h
Protocol: as §4, §5, §6

WM266-4^SDes [20] = assay: as above; conditions: Sunitinib 72 h
Protocol: as §4, §5, §6

WM266-4 [21] = assay: as above; conditions: Sunitinib 72 h
Protocol: as §4, §5, §6

WM115^SDes [22] = assay: as above; conditions: RSK4 reduction by siRNA vs control siRNA, Sunitinib 72 h
Protocol: as §4, §5

A498^SDes cells = assay: Boyden Chamber migration assay after siRNA knock-down and Sunitinib treatment; conditions: Sunitinib 12 h
Protocol: as §4, §5
(§7) Then, cells were seeded onto a membrane with 8 µm pores of a modified Boyden chamber (Schubert and Weiss) containing 500 µL serum-free medium. 10 % FCS served as chemo-attractant.

parental A498 cells = assay: as above; conditions: Sunitinib 12 h
Protocol: as §4, §5, §7

[23] = PRKX reduction by siRNA vs control siRNA
[24] = RSK4 reduction by siRNA vs control siRNA
[25] = TTBK2 reduction by siRNA vs control siRNA

CNC(=O)c1cc(Oc2ccc(NC(=O)Nc3ccc(Cl)c(C(F)(F)F)c3)cc2)ccn1 [Sorafenib]
Sorafenib sensitivity (apoptosis) (A498 [1]; parental A498): insensitivity
Sorafenib sensitivity (apoptosis) (CAKI1; parental CAKI1): insensitivity
decreased sensitivities against Sorafenib compared to the parental cell lines (C8161^NDes [2]; C8161^NDes, Sorafenib LD50): 249%
decreased sensitivities against Sorafenib compared to the parental cell lines (WM115^NDes [3]; WM115^NDes, Sorafenib LD50): 197%
decreased sensitivities against Sorafenib compared to the parental cell lines (WM266-4^NDes [4]; WM266-4^NDes, Sorafenib LD50): 130%

CCN(CC)CCNC(=O)c1c(C)[nH]c(/C=C2\C(=O)Nc3ccc(F)cc32)c1C [Sunitinib]
LD50-values (A498 [1]; A498 parental, Sunitinib 72 h, apoptosis (subG1)): 12.4 ± 0.4 µM
LD50-values (A704): 2.2 ± 0.4 µM
LD50-values (C8161 [5]): 15.5 ± 0.7 µM
LD50-values (CAKI1; CAKI1 parental, Sunitinib 72 h, apoptosis (subG1)): 16.6 ± 1.5 µM
LD50-values (WM115 [6]): 3.6 ± 0.9 µM
LD50-values (WM266-4 [7]): 6.4 ± 1.3 µM
increase of the LD50-values (A498^SDes [8]): 122%
increase of the LD50-values (A704^SDes): 344%
increase of the LD50-values (C8161^Sdes [9]): 112%
increase of the LD50-values (WM115^SDes [10]): 301%
increase of the LD50-values (WM266-4^SDes [11]): 174%
Sunitinib LD50-value (A704^NDes; A704^NDes (Sorafenib selected)): 9.0 ± 2.5 µM
increased Sunitinib LD50-value (A704^NDes; A704^NDes in comparison to the parental cell line): 419%
decrease in Sunitinib sensitivity (C8161^NDes [2]; C8161^Ndes compared to parental): 77%
increase of the Sunitinib LD50-values (WM115^NDes [3]; WM115^Ndes compared to parental): 249%
increase of the Sunitinib LD50-values (WM266-4^NDes [4]; WM266-4^Ndes compared to parental): 168%
increased Sunitinib-induced apoptosis (AdA) (A498^SDes [12]; PRKX reduction by siRNA vs control siRNA, A498SDes): 14.7 ± 4.4%
increased Sunitinib-induced apoptosis (AdA) (A498^SDes [12]; RSK4 reduction by siRNA vs control siRNA, A498^SDes): 14.7 ± 4.4%
increased Sunitinib-induced apoptosis (AdA) (A498^SDes [12]; TTBK2 reduction by siRNA vs control siRNA, A498^SDes): 13.6 ± 0.4%
increased Sunitinib-induced apoptosis (AdA) (A498 [13]; [23]): 6.5 ± 3.2%
increased Sunitinib-induced apoptosis (AdA) (A498 [13]; [24]): 6.5 ± 3.2%
increased Sunitinib-induced apoptosis (AdA) (A498 [13]; [25]): 7.1 ± 3.1%
increased Sunitinib-induced apoptosis (AdA) (C8161^NDes [14]; [23]): 18.1 ± 8.8%
increased Sunitinib-induced apoptosis (AdA) (C8161^NDes [14]; [24]): 6.0 ± 2.1%
increased Sunitinib-induced apoptosis (AdA) (C8161^NDes [14]; [25]): -2.2 ± 6.8%
increased Sunitinib-induced apoptosis (AdA) (C8161^Sdes [15]; PRKX reduction by siRNA vs control siRNA, C8161SDes): 35.8 ± 9.9%
increased Sunitinib-induced apoptosis (AdA) (C8161^Sdes [15]; RSK4 reduction by siRNA vs control siRNA, C8161SDes): 11.9 ± 4.8%
increased Sunitinib-induced apoptosis (AdA) (C8161^Sdes [15]; TTBK2 reduction by siRNA vs control siRNA, C8161^SDes): 20.3 ± 8.1%
increased Sunitinib-induced apoptosis (AdA) (C8161 [16]; [23]): 19.4 ± 2.4%
increased Sunitinib-induced apoptosis (AdA) (C8161 [16]; [24]): 12.5 ± 3.6%
increased Sunitinib-induced apoptosis (AdA) (C8161 [16]; [25]): 7.3 ± 4.8%
increased Sunitinib-induced apoptosis (AdA) (WM115^NDes [17]; PRKX reduction by siRNA vs control siRNA, WM115NDes): 3.9 ± 4.8%
increased Sunitinib-induced apoptosis (AdA) (WM115^NDes [17]; RSK4 reduction by siRNA vs control siRNA, WM115^NDes): 5.6 ± 3.8%
increased Sunitinib-induced apoptosis (AdA) (WM115^NDes [17]; TTBK2 reduction by siRNA vs control siRNA, WM115NDes): 11.7 ± 4.4%
increased Sunitinib-induced apoptosis (AdA) (WM115 [18]; [23]): 3.2 ± 0.4%
increased Sunitinib-induced apoptosis (AdA) (WM115 [18]; [24]): 4.8 ± 2.3%
increased Sunitinib-induced apoptosis (AdA) (WM115 [18]; [25]): 4.8 ± 1.5%
increased Sunitinib-induced apoptosis (AdA) (WM266-4^NDes [19]; [23]): 23.0 ± 5.4%
increased Sunitinib-induced apoptosis (AdA) (WM266-4^NDes [19]; [24]): 5.3 ± 5.2%
increased Sunitinib-induced apoptosis (AdA) (WM266-4^NDes [19]; [25]): 12.7 ± 2.5%
increased Sunitinib-induced apoptosis (AdA) (WM266-4^SDes [20]; PRKX reduction by siRNA vs control siRNA, WM266-4SDes): 34.1 ± 4.9%
increased Sunitinib-induced apoptosis (AdA) (WM266-4^SDes [20]; RSK4 reduction by siRNA vs control siRNA, WM266-4^SDes): 20.2 ± 5.7%
increased Sunitinib-induced apoptosis (AdA) (WM266-4^SDes [20]; TTBK2 reduction by siRNA vs control siRNA, WM266-4SDes): 16.8 ± 7.7%
increased Sunitinib-induced apoptosis (AdA) (WM266-4 [21]; [23]): 22.4 ± 6.7%
increased Sunitinib-induced apoptosis (AdA) (WM266-4 [21]; [24]): 7.1 ± 2.0%
increased Sunitinib-induced apoptosis (AdA) (WM266-4 [21]; [25]): 5.1 ± 2.0%
increased Sunitinib-induced apoptosis (AdA) (WM115^SDes [22]): 14.1 ± 3.2%
increased Sunitinib inhibitory effect (migration) (A498^SDes cells; PRKX reduction by siRNA): 76.4 ± 4.1%
increased Sunitinib anti-migratory effect (A498^SDes cells; RSK4 reduction by siRNA): 8.6 ± 3.1%
inhibition of migration compared to the scrambled siRNA control (parental A498 cells; PRKX reduction by siRNA): 64.4 ± 11.1%
increase in Sunitinib inhibition of migration (parental A498 cells; RSK4 reduction by siRNA): 27.3 ± 2.7%
increase in Sunitinib inhibition of migration (parental A498 cells; TTBK2 reduction by siRNA): 37.1 ± 1.0%

Source: patent publication EP2426213A1, “Marker for sunitnib resistance formation” (Max-Planck-Gesellschaft zur Förderung der Wissenschaften …, priority 2010, dated 2012)
